Earlier results, collected in patent US7083803B2, “Ocular solutions” (Advanced Ocular Systems Limited, priority 2003, dated 2006).

What was measured:
[1] = administered systemically

Compound: C=CC[C@@H]1/C=C(\C)C[C@H](C)C[C@H](OC)[C@H]2O[C@@](O)(C(=O)C(=O)N3CCCC[C@H]3C(=O)O[C@H](/C(C)=C/[C@@H]3CC[C@@H](O)[C@H](OC)C3)[C@H](C)[C@@H](O)CC1=O)[C@H](C)C[C@@H]2OC [Tacrolimus, tacrolimus]
- renal and hepatic toxicity [1]: significant renal and hepatic toxicity
- solubility in chloroform (chloroform): very soluble
- solubility in ethanol (ethanol): freely soluble
- solubility in methanol (methanol): very soluble
- solubility in water (water): practically insoluble
- local tolerability (atopic dermatitis; topical administration): well tolerated locally
- adverse effects, treated versus control groups (atopic dermatitis; topical administration for dermatoses at concentrations up to 0.3%): no significant difference
- clinical improvement in atopic dermatitis (atopic dermatitis; topical administration, doses 0.03%–0.3%, after 2–3 weeks treatment): significant clinical improvement
